Test systems include EKVX NSCLC; HCT-116 colon; HOP-92 NSCLC; HT29 colon; MCF7 breast; MDA-MB-231 breast; MDA-MB-435; MOLT-4 leukemia; NCI-H522 lung; NCI/ADR-RES ovarian; OVCAR-5 ovarian; PC-3 prostate; SF-295 CNS; SN12C renal; SNB-19 CNS; SW-620 colon; U251 CNS; UO-31 renal.
What all share (assay): NCI-60 cell line screen, 48 h

We go through three compounds from PubChem BioAssay (NCI).

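Exposure lasted 48 hours, with cells grown in 96-well plates and compounds tested at five concentrations. TGI marks complete inhibition of growth.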

As for `CCOC(=O)CN1C(=O)NC(C)(c2ccccc2)C1=O` (centres undefined), the TGI in the assay on EKVX NSCLC, in the assay with HCT-116 colon, in the assay on HOP-92 NSCLC, with HT29 colon, in the assay with MCF7 breast and in the assay on MDA-MB-231 breast was above 100 µM each time. In addition, the TGI with MDA-MB-435, in the assay on MOLT-4 leukemia, with NCI-H522 lung, in the assay on NCI/ADR-RES ovarian, in the assay on OVCAR-5 ovarian and with PC-3 prostate was above 100 µM each time. Moreover, the TGI with SF-295 CNS, with SN12C renal, in the assay on SNB-19 CNS, with SW-620 colon, with U251 CNS and with UO-31 renal was above 100 µM in each case.

With `C=C(Cl)/C(=C\Cl)CCC(Cl)C(C)C` (centres undefined) (tested in a mixture with another compound), the TGI in the assay with EKVX NSCLC was found to be 33.3 µM; in the assay with HCT-116 colon it was 29.8 µM; in the assay with HOP-92 NSCLC it was 28.6 µM; with HT29 colon, 36.8 µM; in the assay with MCF7 breast, 26.9 µM; in the assay on MDA-MB-231 breast it was 30.8 µM. The TGI in the assay on MDA-MB-435 is 28.8 µM; in the assay with MOLT-4 leukemia, above 100 µM; with NCI-H522 lung, 16.8 µM; with NCI/ADR-RES ovarian it was 84.4 µM; in the assay on OVCAR-5 ovarian it was 34.8 µM; in the assay on PC-3 prostate, 39 µM. The TGI was 41.2 µM in the assay on SF-295 CNS; 31.3 µM in the assay on SN12C renal; 31.5 µM in the assay with SNB-19 CNS; 7.5 µM with SW-620 colon; 30.1 µM in the assay with U251 CNS; 32.1 µM in the assay with UO-31 renal.

Consider `CC(=O)Nc1cc(Cl)cc(Cl)c1O`, for which the TGI in the assay on EKVX NSCLC, in the assay with HCT-116 colon, in the assay on HOP-92 NSCLC, in the assay on HT29 colon, in the assay with MCF7 breast and in the assay with MDA-MB-231 breast was above 100 µM in each case. Moreover, the TGI in the assay on MDA-MB-435, in the assay with MOLT-4 leukemia, in the assay on NCI-H522 lung, in the assay on NCI/ADR-RES ovarian, in the assay with OVCAR-5 ovarian and with PC-3 prostate was above 100 µM throughout. In addition, the TGI with SF-295 CNS, in the assay with SN12C renal, in the assay with SNB-19 CNS, in the assay on SW-620 colon, in the assay on U251 CNS and in the assay with UO-31 renal was above 100 µM each time.
